According to US5945415A, “(R)-5-bromo-N-(1-ethyl-4-methylhexahydr o-1H-1,4-diazepin-6-yl)-2-methoxy-6-methylamino-3-pyridinecarboxamide, process for producing the same and medicinal composition containing the same” (priority 1995, dated 1999):
Structures can show the parent of a compound that is named as a salt. Where two headings read alike, the source gives them in different places.

Columns and labels:
[1] = system: apomorphine-induced emesis; assay: Inhibitory effect on apomorphine-induced emesis in dog; format: in vivo, Beagle dogs; details: Canis lupus familiaris, read-out: ED50 apomorphine-induced emesis, dog
Protocol: Inhibitory Effect on Apomorphine-induced Emesis
Three to four Beagle dogs (body weight: 8-15 kg) per group were used to examine the inhibitory effect of the test compounds on apomorphine-inducedemesis. This test has been commonly conducted as a method for detecting dopamine blocker. Each of the test animals was orally administered with a prescribed dose of a test compound as dissolved or suspended in 0.5% tragacanth solution, and two hours thereafter, was administered with apomorphine hydrochloride (0.3 mg/kg) by subcutaneous injection at the back.

cisplatin-induced emesis [2] = assay: Effect on cisplatin-induced emesis in ferrets; format: in vivo, Male ferrets; details: Mustela putorius, 0.5 h, read-out: ED50 cisplatin-induced emesis, ferret
Protocol: Effect on Cisplatin-induced Emesis in Ferrets
Male ferrets (Marshall Lab., U.S.A.) weighing approximately 1 kg were used. For intravenous injection, a cannule was implanted in the cervical vein under pentobarbital anethesia, 3-4 days in advance of the experiment. To each test group each a prescribed dose of a test compound as dissolved or suspended in 0.5% tragacanth solution was orally administered, and 30 minutes thereafter, cisplatin (Sigma) 10 mg/kg (physiological salt solution, 3 ml/kg) was administered intravenously through the cannule.

cisplatin-induced emesis [3] = assay: Effect on cisplatin-induced emesis in dog; format: in vivo, Beagle dogs; details: Canis lupus familiaris, 0.5 h, read-out: ED50 cisplatin-induced emesis, dog
Protocol: Effect on Cisplatin-induced Emesis in Dog
Four to five Beagle dogs (body weight: 10-12 kg) per group were used to examine the inhibitory effect of the test compounds on cisplatin-induced emesis. To each test group each a prescribed dose of a test compound as dissolved or suspended in 0.5% tragacanth solution was orally administered, and 30 minutes thereafter, cisplatin (Sigma) 3 mg/kg (physiological salt solution, 3 ml/kg) was intravenously administered.

[4] = Inhibitory effect on exploratory activity; design: species or system Male mice (Std-ddy strain); details: mouse, in vivo; mice, oral, 2 hours after administration, counts for 3 minutes; read-out: ED50 inhibition of exploratory activity
Protocol: Inhibitory Effect on Exploratory Activity
Male mice (5 per group, Std-ddy strain, weighing 20-25 g) were used as the test animals, each of which was orally administered with a test compound which was dissolved or suspended in 0.5% tragacanth solution and after 2 hours from the administration put in a test cage (23×35×30 cm) on Animex activity meter (Farad Co.). Exploratory activity of each mouse was counted for the following 3 minutes. The mean counts of exploratory activities (count/3 min.) per group of the tested mice was compared with that of the control group to calculate the inhibition rate, and the effective dose (ED50 value) of each test compound for 50% inhibition was determined by probit analysis.

Dopamine D2 receptor = Dopamine D2 receptor (Rattus norvegicus, UniProt P61169); assay: biochemical
Dopamine D2 receptor, sequence (P61169 whole entry): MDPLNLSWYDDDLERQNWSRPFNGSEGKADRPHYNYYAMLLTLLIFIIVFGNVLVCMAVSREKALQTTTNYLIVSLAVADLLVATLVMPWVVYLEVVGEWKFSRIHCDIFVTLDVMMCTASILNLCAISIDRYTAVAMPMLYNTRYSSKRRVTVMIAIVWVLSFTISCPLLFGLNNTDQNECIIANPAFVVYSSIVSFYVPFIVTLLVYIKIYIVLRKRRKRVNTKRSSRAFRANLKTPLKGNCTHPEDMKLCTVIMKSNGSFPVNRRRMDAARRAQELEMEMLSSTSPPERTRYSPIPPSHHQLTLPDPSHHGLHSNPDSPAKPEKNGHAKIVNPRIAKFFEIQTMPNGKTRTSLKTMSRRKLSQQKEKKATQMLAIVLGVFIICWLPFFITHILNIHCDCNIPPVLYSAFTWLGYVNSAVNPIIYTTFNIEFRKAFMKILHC
Protocol: (§1) Dopamine D2 receptor-binding and serotonin S3 receptor-binding activities (in vitro receptor binding assay)
(§2) Crude synaptosome fractions prepared from rat brain were used as receptor samples, and [^3 H] spiperone (D2) and [^3 H] quipazine (S3), as labelled ligands. A buffer solution containing each of the receptor sample and labelled ligand (final volume: 1 ml) was incubated for a prescribed period in the presence of one of the test compounds at various concentration levels, and thereafter the radioactive ligand bound to the receptor was isolated onto a filter using a cell-harvester (Brandel Co.) and radioactivity on each filter was measured with a liquid scintillation counter to determine the total amount bound to the receptor. Specifically bound amount was calculated by subtracting non-specifically bound amount from the total amount bound, said non-specifically bound amount being that bound under the presence of an excessive amount of non-labelled ligand [spiperone (D2) and [^3 H] quipazine (S3)] which was concurrently measured. The concentration level of the test compound at which specific binding of labelled ligand was inhibited by 50% (IC50 value) was calculated by probit analysis.

[5] = molecular target: T1, serotonin S3 (5-HT3) receptor (Rattus norvegicus, UniProt P35563); assay: Inhibitory effect on von Bezold-Jarisch reflex (anti-serotonin S3 activity); format: in vivo, Male Wister rats; design: Male Wister rats weighing 250-350 g were anesthetized with urethane; from tissue; host or cells: whole animal in vivo (male Wistar rats); details: 0.05 h, test compound intravenous 3 minutes before 2-methylserotonin 10-30 μg/kg i.v., read-out: ED50 von Bezold-Jarisch Reflex Inhibition
T1 sequence (P35563 24-483): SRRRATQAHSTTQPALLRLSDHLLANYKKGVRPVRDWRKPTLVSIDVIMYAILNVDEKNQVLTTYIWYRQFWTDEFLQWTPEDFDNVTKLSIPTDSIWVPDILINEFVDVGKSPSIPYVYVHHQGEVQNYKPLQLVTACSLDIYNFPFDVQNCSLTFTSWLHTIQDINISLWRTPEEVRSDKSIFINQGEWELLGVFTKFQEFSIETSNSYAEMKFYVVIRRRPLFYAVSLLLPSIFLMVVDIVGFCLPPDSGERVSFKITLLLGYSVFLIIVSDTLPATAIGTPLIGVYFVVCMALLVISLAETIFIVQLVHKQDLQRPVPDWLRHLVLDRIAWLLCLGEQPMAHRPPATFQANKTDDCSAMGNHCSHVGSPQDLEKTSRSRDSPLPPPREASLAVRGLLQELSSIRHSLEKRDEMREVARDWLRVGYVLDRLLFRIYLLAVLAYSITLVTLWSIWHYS
Protocol: Inhibitory Effect on von Bezold-Jarisch Reflex (Anti-serotonin S3 Activity)
This test was carried out following the method of Fozard, et al. [cf. Arch. […] Male Wister rats weighing 250-350 g were anesthetized with urethane (1.5 g/kg, intraperitoneal) and set on their backs. Electrocardiogram (lead II) and a heart rate on the animals were recorded on inkwriting oscillograph via a biophysical amplifier and pulse rate tachometer, respectively. […] A fixed amount of 2-methylserotonin was repeatedly administered at 15-minute intervals until stable responses were obtained, and then a test compound was administered intravenously, 3 minutes before administration of 2-methylserotonin.

[6] = molecular target: T1, serotonin S3 (5-HT3) receptor; assay: Serotonin S3 receptor-binding (in vitro receptor binding assay, [3H] quipazine); design: Crude synaptosome fractions prepared from rat brain were used as receptor samples; from tissue; host or cells: rat brain, crude synaptosome fraction
Protocol: as §1, §2

[7] = dog, oral, 2 hours before apomorphine hydrochloride 0.3 mg/kg s.c., emetic episodes within 1 hour
[8] = ferret, oral, 30 minutes before cisplatin 10 mg/kg i.v., emetic episodes within 3 hours
[9] = dog, oral, 30 minutes before cisplatin 3 mg/kg i.v., emetic episodes within 5 hours

Row | Compound | ED50 [1, 7] [mg/kg] | ED50 (cisplatin-induced emesis [2]; [8]) [mg/kg] | ED50 (cisplatin-induced emesis [3]; [9]) [mg/kg] | ED50 at 2 h [4] [mg/kg] | IC50 (Dopamine D2 receptor) [nM] | ED50 [5] [mg/kg] | IC50 ([6]; crude synaptosome fractions from rat brain, [3H] quipazine (S3), read-out: IC50 S3) [nM] | IC50 [6] [nM] | ED50 ([1]; po, 2 h) [mg/kg] | ED50 (cisplatin-induced emesis [2]; po) [mg/kg] | ED50 (cisplatin-induced emesis [3]; po) [mg/kg]
1 | CCN1CCN(C)C[C@@H](NC(=O)c2cc(Br)c(NC)nc2OC)C1.O=C(O)/C=C/C(=O)O.O=C(O)/C=C/C(=O)O [Example 1, (R)-5-bromo-N-(1-ethyl-4-methylhexahydro-1H-1,4-diazepin-6-yl)-2-methoxy-6-methylamino-3-pyridinecarboxamide Difumarate] | 0.19 | 0.03 | 0.29 | 48.5 | 11.7 | 0.0019 | 1 | – | – | – | –
2 | CCN(CC)CCNC(=O)c1cc(Cl)c(N)cc1OC.Cl.Cl.O [metoclopramide hydrochloride, 4-amino-5-chloro-N-[2-(diethylamino)ethyl]-2-methoxybenzamide dihydrochloride monohydrate] | 0.45 | 0.98 | 3.96 | 22.4 | – | 0.181 | – | 880 | – | – | –
3 | Cc1nccn1CC1CCc2c(c3ccccc3n2C)C1=O.Cl (centres unmarked) [ondansetron hydrochloride, 1,2,3,9-tetrahydro-9-methyl-3-[(2-methyl-1H-imidazol-1-yl)methyl]-4H-carbazol-4-one hydrochloride] | > 10 | 0.1 | 0.16 | – | > 100000 | 0.0011 | – | – | – | – | –
4 | CN1C2CCCC1CC(NC(=O)c1nn(C)c3ccccc13)C2 (stereo not drawn) [granisetron hydrochloride, endo-1-methyl-N-(9-methyl-9-azobicyclo-[3.3.1]non-3-yl)-1H-indazole-3-carboxamide hydrochloride] | – | – | – | – | > 100000 | 0.00026 | – | – | – | – | –
5 | O=c1[nH]c2ccccc2n1CCCN1CCC(n2c(=O)[nH]c3cc(Cl)ccc32)CC1 [domperidone, 5-chloro-1-[1-[3-(2,3-dihydro-2-oxo-1H-benzimidazol-1-yl)propyl]-4-piperidinyl]-1,3-dihydro-2H-benzimidazol-2-one] | – | – | – | – | – | – | – | – | 0.02 | > 10 | > 3
